Converted amounts (≈) assume the structure as drawn.
Key:
L-1210 = assay: In vitro activity in mouse leukemic cell line L-1210; assay type: cell-based; conditions: L1210, L-1210, in vitro, read-out: ID50 (the source's name)
Description: (§1) CNUCLEOSIDES IN MOUSE AND HUMAN LEUKYMIC CELL LINES
(§2) It is noted that the first compound in Table 1 is the compound reported in Lim et al (supra).

RAJI = assay: In vitro activity in human leukemic cell line RAJI; assay type: cell-based; conditions: read-out: ID50 (the source's name)
Description: as §1, §2

P-815 = assay: In vitro activity in mouse leukemic cell line P-815; assay type: cell-based; conditions: P815, P-815, in vitro, read-out: ID50 (the source's name)
Description: as §1, §2

HL-60 = assay: In vitro activity in human leukemic cell line HL-60; assay type: cell-based; conditions: HL-60, in vitro, read-out: ID50 (the source's name)
Description: as §1, §2

leukemic cells = assay: Anti-leukemic / antitumor activity using usual techniques of the art (summary statements); assay type: cell-based, mouse and human; conditions: in words
Description: as §2

ALL-CCRF-CEM = assay: In vitro activity in human leukemic cell line ALL-CCRF-CEM; assay type: cell-based; conditions: read-out: ID50 (the source's name)
Description: as §1, §2

L-1210/0 = assay: In vivo activity of C-nucleosides in mice, L-1210/0 line
Description: (§3) IN VIVO ACTIVITY OF CNUCLEOSIDES IN MICE
as §2

L-1210/MP = assay: In vivo activity of C-nucleosides in mice, L-1210/MP line; conditions: Q4D × 3,D1 @ 0.4 MG/KG
Description: as §3, §2

P-815/ARA C = assay: In vivo activity of C-nucleosides in mice, P-815/ARA C line
Description: as §3, §2

P-815/0 = assay: In vivo activity of C-nucleosides in mice, P-815/0 line
Description: as §3, §2

Row | SMILES | IC50 (L-1210) [µg/mL] | IC50 (RAJI) [µg/mL] | IC50 (P-815) [µg/mL] | IC50 (HL-60) [µg/mL] | IC50 (ALL-CCRF-CEM) [µg/mL] | antitumor / anti-leukemic activity (leukemic cells; listed as X--NH, R1 =OH) | antitumor / anti-leukemic activity (leukemic cells; listed as first compound in Table 1) | % ILS (L-1210/0; Q4D × 3,D1 @ 0.25 MG/KG) [%] | % ILS (L-1210/0; QD × 5,D1 @ 0.5 MG/KG) [%] | % ILS (L-1210/MP) [%] | % ILS (P-815/ARA C; Q4D × 3,D1 @ 0.4 MG/KG) [%] | % ILS (P-815/ARA C; Q4D × 3,D1 @ 0.7 MG/KG) [%] | % ILS (P-815/0; Q4D × 4,D1 @ 40 MG/KG) [%] | % ILS (P-815/0; QD × 2/Q2D × 3 @ 60 MG/KG) [%]
1 | O=c1[nH]cnc2c([C@@H]3O[C@H](CO)[C@@H](O)[C@H]3O)c[nH]c12 [X = NH, R1 -- OH, R2 = H, reference compound] | > 100 | > 100 | > 10 | > 100 | > 100 | essentially no antitumor activity | lack of activity | – | – | – | – | – | – | –
2 | Nc1nc[nH]c2c([C@@H]3O[C@H](CO)[C@@H](O)[C@H]3O)cnc1-2 [X = NH, R1 = NH2, R2 = H, 7-(β-D-Ribofuranosyl)-4-amino-pyrrolo[3,2-d]pyrimidine] | 0.0008 (≈ 0.003 µM) | 0.002 (≈ 0.00751 µM) | 0.001 (≈ 0.00376 µM) | 0.0003 (≈ 0.00113 µM) | 0.0008 (≈ 0.003 µM) | – | – | 17.0 | 9.1 | 71.8 | 19.8 | 30.8 | – | –
3 | OC[C@H]1O[C@@H](c2c[nH]c3c(=S)[nH]cnc23)[C@H](O)[C@@H]1O [X = NH, R1 = SH, R2 = H] | – | – | 5.6 (≈ 19.8 µM) | – | – | – | – | – | – | – | – | – | – | –
4 | CSc1ncnc2c([C@@H]3O[C@H](CO)[C@@H](O)[C@H]3O)c[nH]c12 [X = NH, R1 = SMe, R2 = H] | – | – | 0.3 (≈ 1.01 µM) | – | – | – | – | – | – | – | – | – | – | –

More lines, main results first:

Row | IC50 (L-1210) [µg/mL] | IC50 (RAJI) [µg/mL] | IC50 (P-815) [µg/mL] | IC50 (HL-60) [µg/mL] | IC50 (ALL-CCRF-CEM) [µg/mL] | SMILES | antitumor / anti-leukemic activity (leukemic cells; listed as X--NH, R1 =OH) | antitumor / anti-leukemic activity (leukemic cells; listed as first compound in Table 1) | % ILS (L-1210/0; Q4D × 3,D1 @ 0.25 MG/KG) [%] | % ILS (L-1210/0; QD × 5,D1 @ 0.5 MG/KG) [%] | % ILS (L-1210/MP) [%] | % ILS (P-815/ARA C; Q4D × 3,D1 @ 0.4 MG/KG) [%] | % ILS (P-815/ARA C; Q4D × 3,D1 @ 0.7 MG/KG) [%] | % ILS (P-815/0; Q4D × 4,D1 @ 40 MG/KG) [%] | % ILS (P-815/0; QD × 2/Q2D × 3 @ 60 MG/KG) [%]
5 | 0.0006 (≈ 0.00212 µM) | 0.002 (≈ 0.00706 µM) | 0.0003 (≈ 0.00106 µM) | 0.0005 (≈ 0.00176 µM) | 0.0005 (≈ 0.00176 µM) | Nc1ncnc2c([C@@H]3O[C@H](CO)[C@@H](O)[C@H]3O)csc12 [X = S, R1 = NH2, R2 = H, 7-(β-D-ribofuranosyl)-4-amino-thieno[3,2-d]pyrimidine] | – | – | – | – | – | – | – | – | –
6 | 3.3 (≈ 11.6 µM) | 4.2 (≈ 14.8 µM) | 2.5 (≈ 8.79 µM) | 0.4 (≈ 1.41 µM) | 0.9 (≈ 3.17 µM) | O=c1[nH]cnc2c([C@@H]3O[C@H](CO)[C@@H](O)[C@H]3O)csc12 [X = S, R1 = OH, R2 = H, 7-(β-D-Ribofuranosyl)-3H-4-oxo-thieno[3,2-d]pyrimidine] | – | – | – | – | – | – | – | – | –
7 | 0.6 (≈ 2 µM) | 0.9 (≈ 3 µM) | 0.5 (≈ 1.66 µM) | 0.4 (≈ 1.33 µM) | 1.6 (≈ 5.33 µM) | OC[C@H]1O[C@@H](c2csc3c(=S)[nH]cnc23)[C@H](O)[C@@H]1O [X = S, R1 = SH, R2 = H, 7-(β-D-ribofuranosyl)-3H-4-thiono-thieno[3,2-d]pyrimidine] | – | – | – | – | – | – | – | – | –
8 | 0.07 (≈ 0.223 µM) | 0.03 (≈ 0.0954 µM) | 0.03 (≈ 0.0954 µM) | 0.008 (≈ 0.0254 µM) | 0.006 (≈ 0.0191 µM) | CSc1ncnc2c([C@@H]3O[C@H](CO)[C@@H](O)[C@H]3O)csc12 [X = S, R1 = SMe, R2 = H, 7-(β-D-Ribofuranosyl)-4-methylthio-thieno[3,2-d]pyrimidine] | – | – | – | – | – | – | – | 56.3 | 71.4

— US4584369A, “Anti-leukemic beta-glycosyl C-nucleosides” (Sloan-Kettering Institute for Cancer Research, priority 1984, dated 1986)
